Results taken from paper PMC8222254, “Self-assembly of an anion receptor with metal-dependent kinase inhibition and potent in vitro anti-cancer properties” (Nature Communications, 2021).

How the values were obtained:
[1] = target: T1, AMPK (Homo sapiens, UniProt Q13131); experiment: ADP-Glo Kinase Assay in presence of varying AMP; format: biochemical
T1 construct: purchased Promega
Description: ATP competition kinase assays were performed by the MRC Protein Phosphorylation and Ubiquitination Unit International Centre for Kinase Profiling (University of Dundee). Inhibition of recombinant human AMPK (α1β2γ1) by 10μM [L2Cu3]^6+ or [L2Zn3]^6+ was evaluated at five different ATP concentrations (0.5, 2, 20, 200 and 500 µM ATP). Substrate competition assays were performed using the ADP-Glo Kinase Assay (Promega) and recombinant human AMPK (α1β2γ1) (Promega) with concentrations of the provided AMPK substrate (SAMStide substrate, Promega) ranging from 1 to 15 mg/ml. Following pre-incubation of substrate with kinase for 5 min 10 µM [L2Cu3]^6+, [L2Zn3]^6+ or solvent control and 50 µM ATP was added to start the kinase reaction. For determination of the effects of AMP on AMPK inhibition by [L2Zn3]^6+, the ADP-Glo Kinase Assay (Promega) was performed in presence of varying of AMP (0, 80, 160 μM).

[2] = test system: HCT116; experiment: Metabolic flux analysis (Cell Energy Phenotype Assay, OCR/ECAR); format: cell-based, human; design: Mean Baseline EACR / Baseline EACR / Mean Stressed OCR / Stressed OCR / Mean Stressed EACR / Stressed EACR / Mean Baseline OCR / Baseline OCR: unit not given here; conditions: for Baseline EACR / Baseline OCR / Stressed EACR / Stressed OCR / Mean Baseline EACR / Mean Baseline OCR / Mean Stressed EACR / Mean Stressed OCR: HCT116 cells
Description: ARPE-19 and HCT116 cells were seeded in 8-well XFp plates (Agilent) 48 h prior to metabolic flux analyses using the Agilent XFp extracellular flux analyser. Cell seeding densities were 2500 cells/well for ARPE-19 cells and 7500 cells/well for HCT116 cells in order to achieve equivalent cell confluency (~70% confluency and in log phase growth) at the time of analyses. Cells were treated with 25 μM of [L2Zn3]^6+ or solvent control (0.2% DMSO) for 1 h or 20 h before metabolic flux analyses using the Cell Energy Phenotype Assay (Agilent) in accordance with the manufacturer’s instructions. For determination of maximal respiratory and glycolytic rates (metabolic reserve) following real-time quantification of basal respiratory and glycolytic rates, a ‘metabolic stress mix’ of 1 µM oligomycin and FCCP (0.5 µM for ARPE-19, 0.25 µM for HCT116) was injected into the media.

[3] = test system: ARPE-19; experiment: TSQ cellular localisation / uptake study; format: cell-based, human; conditions: ARPE-19, 25μM, 1 hour
Description: (§1) 48 h following cell seeding in Lumox chamber slides (8-well, Sarstedt), cells (ARPE-19 and HCT116 p53^+/+ were treated for 1 h at 37 °C with 25 μM of [L2Zn3]^6+ or DMSO solvent control before removal and washout three times using complete phenol-red free media. 25 μM TSQ (Enzo Life Sciences) was then added for 30 min for detection of cellular zinc before its washout (three washes) and analyses by confocal microscopy (Zeiss LSM880).

[4] = test system: HCT116 p53+/+; experiment: TSQ cellular localisation / uptake study; format: cell-based, human; conditions: 25μM, 1 hour
Description: as §1

[5] = 1h exposure, mean of 3 runs (Fig. 9c)
[6] = 20h exposure, mean of 3 runs (Fig. 9d)

T1 sequence (Q13131 whole entry): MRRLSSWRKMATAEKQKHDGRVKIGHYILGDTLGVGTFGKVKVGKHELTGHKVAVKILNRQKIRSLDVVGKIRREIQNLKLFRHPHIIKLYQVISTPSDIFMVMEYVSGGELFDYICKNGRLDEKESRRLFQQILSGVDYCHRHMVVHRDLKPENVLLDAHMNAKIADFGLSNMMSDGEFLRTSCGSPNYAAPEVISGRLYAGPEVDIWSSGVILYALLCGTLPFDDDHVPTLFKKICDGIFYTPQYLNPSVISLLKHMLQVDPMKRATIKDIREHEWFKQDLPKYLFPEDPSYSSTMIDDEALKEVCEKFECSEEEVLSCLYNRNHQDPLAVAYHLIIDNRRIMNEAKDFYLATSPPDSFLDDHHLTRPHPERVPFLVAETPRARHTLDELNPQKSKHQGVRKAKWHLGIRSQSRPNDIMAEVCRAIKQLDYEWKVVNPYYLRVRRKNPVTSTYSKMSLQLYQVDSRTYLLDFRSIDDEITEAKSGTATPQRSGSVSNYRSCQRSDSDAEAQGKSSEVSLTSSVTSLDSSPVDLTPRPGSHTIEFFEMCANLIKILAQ
T1 sequence (O43741 whole entry partner): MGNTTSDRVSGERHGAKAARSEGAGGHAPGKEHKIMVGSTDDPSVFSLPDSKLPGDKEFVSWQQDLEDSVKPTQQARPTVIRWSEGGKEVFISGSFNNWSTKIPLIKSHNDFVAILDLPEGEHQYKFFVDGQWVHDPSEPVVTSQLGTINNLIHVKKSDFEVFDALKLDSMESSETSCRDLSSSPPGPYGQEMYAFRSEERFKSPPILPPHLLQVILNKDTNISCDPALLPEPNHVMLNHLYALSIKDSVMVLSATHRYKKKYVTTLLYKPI
T1 sequence (P54619 whole entry partner): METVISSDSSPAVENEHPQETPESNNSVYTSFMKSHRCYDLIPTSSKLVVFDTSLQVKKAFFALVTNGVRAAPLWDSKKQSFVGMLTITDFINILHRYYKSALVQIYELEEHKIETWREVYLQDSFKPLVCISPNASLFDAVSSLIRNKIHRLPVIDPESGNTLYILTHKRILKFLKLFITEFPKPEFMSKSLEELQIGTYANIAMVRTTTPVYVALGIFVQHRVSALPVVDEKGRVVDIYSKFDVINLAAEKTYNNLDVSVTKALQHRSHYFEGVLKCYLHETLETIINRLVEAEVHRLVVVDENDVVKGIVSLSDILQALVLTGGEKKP

CC(=O)[O-].CC(=O)[O-].CC(=O)[O-].CC(=O)[O-].CC(=O)[O-].CC(=O)[O-].[Zn+2].[Zn+2].[Zn+2].c1ccc(-c2csc(NCCN(CCNc3nc(-c4ccccn4)cs3)CCNc3nc(-c4ccccn4)cs3)n2)nc1.c1ccc(-c2csc(NCCN(CCNc3nc(-c4ccccn4)cs3)CCNc3nc(-c4ccccn4)cs3)n2)nc1 [[L2Zn3]6+]
AMPK activity remaining ([1]; in the absence of AMP): ~ 30%
AMPK activity remaining ([1]; in the presence of AMP (80 or 160 microM)): 20-30%
glycolysis (ECAR) ([2]; HCT116, 25 μM, 1 h): modest selective decrease
mitochondrial respiration and glycolysis ([2]; HCT116, 25 μM, 20 h): substantially impaired
Baseline EACR ([2]; 1h exposure, Run 1 (Fig. 9c)): 36.12
Baseline OCR ([2]; 1h exposure, Run 1 (Fig. 9c)): 98.34
Stressed EACR ([2]; 1h exposure, Run 1 (Fig. 9c)): 50.32
Stressed OCR ([2]; 1h exposure, Run 1 (Fig. 9c)): 147.22
Baseline EACR ([2]; 1h exposure, Run 2 (Fig. 9c)): 27.29
Baseline OCR ([2]; 1h exposure, Run 2 (Fig. 9c)): 76.52
Stressed EACR ([2]; 1h exposure, Run 2 (Fig. 9c)): 37.11
Stressed OCR ([2]; 1h exposure, Run 2 (Fig. 9c)): 109.94
Baseline EACR ([2]; 1h exposure, Run 3 (Fig. 9c)): 34.53
Baseline OCR ([2]; 1h exposure, Run 3 (Fig. 9c)): 90.56
Stressed EACR ([2]; 1h exposure, Run 3 (Fig. 9c)): 47.29
Stressed OCR ([2]; 1h exposure, Run 3 (Fig. 9c)): 132.49
Mean Baseline EACR [2, 5]: 32.65
Mean Baseline OCR [2, 5]: 88.47
Mean Stressed EACR [2, 5]: 44.91
Mean Stressed OCR [2, 5]: 129.88
Baseline EACR ([2]; 20h exposure, Run 1 (Fig. 9d)): 24.12
Baseline OCR ([2]; 20h exposure, Run 1 (Fig. 9d)): 21.60
Stressed EACR ([2]; 20h exposure, Run 1 (Fig. 9d)): 29.60
Stressed OCR ([2]; 20h exposure, Run 1 (Fig. 9d)): 20.79
Baseline EACR ([2]; 20h exposure, Run 2 (Fig. 9d)): 26.59
Baseline OCR ([2]; 20h exposure, Run 2 (Fig. 9d)): 20.38
Stressed EACR ([2]; 20h exposure, Run 2 (Fig. 9d)): 33.07
Stressed OCR ([2]; 20h exposure, Run 2 (Fig. 9d)): 21.88
Baseline EACR ([2]; 20h exposure, Run 3 (Fig. 9d)): 25.54
Baseline OCR ([2]; 20h exposure, Run 3 (Fig. 9d)): 19.42
Stressed EACR ([2]; 20h exposure, Run 3 (Fig. 9d)): 31.03
Stressed OCR ([2]; 20h exposure, Run 3 (Fig. 9d)): 19.19
Mean Baseline EACR [2, 6]: 25.41
Mean Baseline OCR [2, 6]: 20.47
Mean Stressed EACR [2, 6]: 31.23
Mean Stressed OCR [2, 6]: 20.62
cellular uptake (TSQ fluorescent signal) [3]: increase in TSQ fluorescent signal
cellular uptake (TSQ fluorescent signal) [4]: increase in TSQ fluorescent signal
